Measurements taken from US20090047379A1, “Benzamide Compounds Useful as High Potency Sweet Taste Enhancers” (priority 2007, published 2009).
Where a SMILES comes first, the peptide text is derived from it.

What was measured:
Assay type in all cases: in vivo, human
sweet taste [1] = test: Comparisons of taste quality and intensity, solutions in water (Example 12, Table I); details: for Other taste attributes: in vivo
Source text: Sweetness is rapid and fades quickly on rinsing of the mouth.

sweet taste [2] = test: Structure activity example, tasting of analogues (Example 11); details: when tasted
Source text: During our invention process, we observed repeatedly that a small structural difference can cause dramatic change in the taste. For example, compound N-(2-methylcyclohexyl)-2,3,4,5,6-pentafluoro-benzamide is very sweet; moving the methyl group to the 4-position render the resulting N-(4-methylcyclohexyl)-2,3,4,5,6-pentafluoro-benzamide bitter; moving the methyl group to nitrogen render the resulting N-cyclohexyl-2,3,4,5,6-pentafluoro-N-methyl-benzamide tasteless.
There is however an underlying theme, that being that an amide functionality is important.

sweet taste [3] = test: Sweetener blends with Ace-K or Sucralose, trained technical panel (Example 16); details: for overall group rating: scale 1-9, 9 the best; for blend rating: scale 1 to 9
Description: A comparison of the synergistic effects the Benzamide, 2,3,4,5,6-Pentafluoro-N-(2-methylcyclohexyl)—(sweetener A) in combination with acesulfame-k, herein referred to as Ace-K and Sucralose was compared with the effects of Benzamide, 2,3,5,6-tetrafluoro-4-methyl-N-(2-methylcyclohexyl)—(sweetener B) in combination with the same commercial sweeteners. The samples were evaluated by a trained technical panel. The first sample was Ace-K at 100 ppm.
A similar evaluation with done with Sucralose as the commercial sweetener. An evaluation of Sucralose at 60 ppm was done in plain water. […] A comparison of the synergistic effects of sweetener A at 3 ppm in combination with Sucralose at 60 ppm was evaluated against sweetener B in the same combination. […] The blends were evaluated on a scale for 1 to 9.

sweet taste [4] = test: Cola beverage containing Aspartame, trained technical panel (Example 15); details: for sweetness profile rating: scale 0-9, 9 the best
Description: The sweeteners Benzamide, 2,3,5,6-[…]-4-methyl-N-(2-methylcyclohexyl)—(sweetener A) and Benzamide, 2,3,4,5,6-pentafluoro-N-(2-methylcyclohexyl)—(sweetener B) were both evaluated in a cola beverage that contained Aspartame. The purpose of this experiment was to evaluate the sweeteners profile in a sweetener blend. There were three separate samples evaluated, see Table 3. The samples were evaluated by a trained technical panel. The sweetness profile was rated on a scale from 0-9, with 0 being the worst and 9 the best. The first sample, Sample A, containing only aspartame at 300 ppm was rated a 4. […] The second sample, Sample B, contained Aspartame at 300 ppm and sweetener A at 3 ppm. […] The rating for sample B was a 9 for sweetness. The third sample, sample C, contained Aspartame at 300 ppm and sweetener B at 3 ppm.

sweet taste [5] = test: Sweetness enhancement of an 8 brix beverage, trained technical panel (Example 14); details: 4 ppm in 8 brix beverage; for sweet intensity rating: ten point scale, nine most sweetness, zero no sweetness
Description: An 8 brix, the measurement of the mass ratio of dissolved sugar in a liquid, beverage was prepared to evaluate two sweeteners, 2,3,5,6-tetrafluoro-4-methyl-N-(2-methylcyclohexyl)benzamide-(sweetener A) and N-(2-methylcyclohexyl)-2,3,4,5,6 pentafluoro-benzamide)—(sweetener B). The objective was to determine if the sweeteners enhanced an 8 brix beverage to make it taste more similar to a 10 brix beverage. There were four samples evaluated an 8 brix beverage blank, sweetener A in 8 brix beverage, sweetener B in 8 brix beverage and a 10 brix beverage blank. Both the sweeteners were evaluated at 4 ppm. The beverage samples were evaluated by a trained technical panel. The panel evaluated the sweetness profile and the sweet intensity. The intensity was rated on a ten point scale with nine being the most sweetness and zero having no sweetness. […] The sweet intensity ratings were as follows (see Table 2) sample A rated 6, sample B rated 7, sample C rated 9 and sample D rated 9.

sweet taste [6] = test: Sweetness in muffins, trained technical panel (second Example 14); details: 10 ppm in muffin; for sweetness intensity rating: scale 0-9, 9 most sweetness
Description: The sweeteners 2,3,5,6-tetrafluoro-4-methyl-N-(2-methylcyclohexyl)benzamide (sweetener A) and N-(2-methylcyclohexyl)-2,3,4,5,6 pentafluoro-benzamide -(sweetener B) were both evaluated in muffins. They were evaluated along with a blank muffin sample. Both sweeteners were evaluated at 10 ppm in the muffin. The samples were evaluated by a trained technical panel. They were asked to evaluate the profile and to give a rating between 0-9 on the sweetness intensity. The rating scale ranged from zero for no sweetness to 9 for the most sweetness. […] The samples were rating on sweet intensity (see Table 3). The samples ratings were as follows; sample A rated 5, sample B rated 6, sample C rated 8.

sweet taste [7] = test: Comparison of sweetness at 5 ppm in plain water (Example 13)
Description: Two molecules were compared to each other based on sweetness. Both molecules were evaluated at 5 ppm in plain water.

[8] = 3 ppm with Aspartame 300 ppm in cola beverage
[9] = 3 ppm in combination with Ace-K at 100 ppm
[10] = 3 ppm in combination with Sucralose at 60 ppm
[11] = Aspartame 300 ppm only in cola beverage

## Cc1c(F)c(F)c(C(=O)N[C@H](C)C2CCCCC2)c(F)c1F [Compound 40, (R)-N-1-cyclohexylethyl-2,3,5,6-tetrafluoro-4-methyl-benzamide]
Sweet taste [1]
  Other taste attributes: Bitter at 20 ppm
Sweet taste [1]; sweetness onset and duration relative to sucrose
  Profile: Poor sweet taste profile

## CC1CCCCC1OC(=O)c1c(F)c(F)c(F)c(F)c1F (stereo not shown) [2,3,4,5,6-pentafluorobenzoic acid 2-methylcyclohexyl ester]
Sweet taste [2]
  taste: burning sensation

## CC(C)C(C)NC(=O)c1c(F)c(F)c(F)c(F)c1F (stereo not shown) [Compound 53, N-(1,2-dimethylpropyl)-2,3,4,5,6-pentafluoro-benzamide]
Sweet taste [1]
  Other taste attributes: Clean

## CC1=CC(=O)[N-]S(=O)(=O)O1.[K+] [Ace-K, acesulfame-k]
Sweet taste [3]; Ace-K at 100 ppm alone
  taste comments: delayed sweetness, some off notes, astringent and bitter

## Cc1c(F)c(F)c(C(=O)NC2CCCCC2C)c(F)c1F (stereo not shown) [2,3,5,6-tetrafluoro-4-methyl-N-(2-methylcyclohexyl)benzamide]
Sweet taste [4]; [8]
  sweetness comments: sweetness was well rounded, lingered, and gave mouthfeel
  sweetness profile rating: 9
Sweet taste [5]
  sweetness profile comments: sour and slightly sweeter than the 8 brix blank
  sweet intensity rating: 7
Sweet taste [3]; [9]
  taste comments: delayed sweetness, astringency, not as strong a sweetness as the combination with sweetener A
  overall group rating: 7
Sweet taste [3]; [10]
  taste comments: not as sweet as the combination with sweetener A, delayed sweetness
  blend rating: 7
Sweet taste [6]
  profile description: slightly sweet, not much difference in profile to the blank muffin sample
  sweetness intensity rating: 6
Sweet taste [7]
  taste description: mild vegetative, green and very bitter with some sugary notes

## CN(C(=O)c1c(F)c(F)c(F)c(F)c1F)C1CCCCC1 [N-cyclohexyl-2,3,4,5,6-pentafluoro-N-methyl-benzamide]
Sweet taste [2]
  taste: tasteless

## Cc1cc(C)c(C(=O)NC(C)C(C)(C)C)c(C)c1 (stereo not shown) [Example 2, 2,4,6-trimethyl-N-(1,2,2-trimethylpropyl)-benzamide]
Sweet taste [1]
  Other taste attributes: Clean

## O=C(N[C@H]1CCCc2ccccc21)c1ccoc1 (single isomer, unassigned) [1S isomer, reference compound]
Sweet taste [1]
  Other taste attributes: 1S isomer is tasteless

## O=C(N[C@@H]1CCCc2ccccc21)c1ccoc1 [N-[(1R)-1,2,3,4-tetrahydro-1-naphthalenyl]-3-furancarboxamide, reference compound]
Sweet taste [1]
  Other taste attributes: Clean

## OC[C@H]1O[C@@](CO)(O[C@H]2O[C@H](CO)[C@@H](O)[C@H](O)[C@H]2O)[C@@H](O)[C@@H]1O [Sucrose, reference compound]
Sweet taste [1]; 4% sucrose in water
  taste description: moderate sweetness and mouthfeel
Sweet taste [1]; 8% sucrose in water
  taste description: good level sweetness and excellent mouthfeel

## CC1CCC(NC(=O)c2c(F)c(F)c(F)c(F)c2F)CC1 (stereo not shown) [N-(4-methylcyclohexyl)-2,3,4,5,6-pentafluoro-benzamide]
Sweet taste [2]
  taste: bitter

## COC(=O)[C@H](Cc1ccccc1)NC(=O)[C@@H](N)CC(=O)O [Aspartame] (H-Asp-Phe-OMe)
Sweet taste [4]; [11]
  sweetness comments: sweetness in the beverage spiked and then disappeared
  sweetness profile rating: 4

## OC[C@H]1O[C@H](O[C@]2(CCl)O[C@H](CCl)[C@@H](O)[C@@H]2O)[C@H](O)[C@@H](O)[C@H]1Cl [Sucralose]
Sweet taste [3]; Sucralose at 60 ppm alone in plain water
  taste comments: sweet onset, mouthwatering, sweetness lingers

## Cc1c(F)c(F)c(C(=O)NC(C)C(C)C)c(F)c1F (stereo not shown) [2,3,5,6-tetrafluoro-4-methyl-N-(1,2-Dimethyl-propyl)benzamide, reference compound]
Sweet taste [1]
  Other taste attributes: Clean

## CC1CCCCC1NC(=O)c1c(F)c(F)c(F)c(F)c1F (stereo not shown) [Example 6, N-(2-methylcyclohexyl)-2,3,4,5,6-pentafluoro-benzamide]
Sweet taste [4]; [8]
  sweetness comments: sweetness had more impact than Sample A, but not as intense as Sample B
  sweetness profile rating: 6
Sweet taste [5]
  sweetness profile comments: sweeter, more mouthwatering, had a slight astringent aftertaste and had a similar sweetness profile to the 10 brix beverage
  sweet intensity rating: 9
Sweet taste [1]; 1 ppm in water
  equal in sweetness to sucrose: 1-2 % sucrose
  taste description: sweetness is not immediate but builds after a few seconds but is very clean, lacking bitterness, off-taste or negative attribute
Sweet taste [1]; 4% sucrose plus 1 ppm in water
  rated as sweet as sucrose: 8 % sucrose
  taste description: longer lasting and considered to be quite acceptable sweet character lacking bitterness
Sweet taste [1]; 4% sucrose plus 5 ppm in water
  taste description: too sweet and too long lasting
Sweet taste [1]; 5 ppm in water
  equal in strength to sucrose: 4-6 % sucrose
  sweet character lasts longer than sucrose: up to 10 times longer
  taste description: sweetness is not immediate but is very clean, lacking bitterness, off-taste or negative attribute
Sweet taste [1]
  Other taste attributes: Clean
Sweet taste [1]; low concentrations <4 ppm
  effect in combination with sucrose: synergistic effect with sucrose
Sweet taste [2]
  taste: very sweet
Sweet taste [3]; [9]
  taste comments: strong sweetness upfront, bitter, enhanced bitterness in combination
  overall group rating: 9
Sweet taste [3]; [10]
  taste comments: enhanced sweetness, more rounded, no bitter, very strong sweet profile
  blend rating: 9
Sweet taste [6]
  profile description: sweeter, long lasting sweetness and mouthwatering
  sweetness intensity rating: 8
Sweet taste [7]
  taste description: mouth coating, intense sweet, no bitter notes, and had a fast sweetness onset
